Laboratory results reported in the NIST ThermoML archive (doi:10.1021/je9001027).

Tests used:
[1] = wn = mass fraction of the nth substance listed; settings: 101 kPa, Liquid
[2] = 101 kPa, Liquid
[3] = cn = amount concentration of the nth substance listed, in mol/dm3; settings: 101 kPa, Liquid

O [water] + C[S+](C)[O-]
[1], w2 = 0
Settings	mass density [kg/m3]	viscosity [mPa·s]
298.15 K	–	0.89
303.15 K	–	0.8003
308.15 K	983.66	0.7591
313.15 K	–	0.6214
318.15 K	–	0.5346

C[S+](C)[O-] [dimethyl sulfoxide]
[2]
Settings	mass density [kg/m3]	viscosity [mPa·s]
298.15 K	1095.41	1.966
303.15 K	1090.13	1.809
308.15 K	1085.38	1.652
313.15 K	1080.58	1.559
318.15 K	1074.5	1.488

[Br-].[Rb+] [rubidium bromide] + C[S+](C)[O-]
[3]
Settings	mass density, 298.15 K [kg/m3]	mass density, 303.15 K [kg/m3]	mass density, 308.15 K [kg/m3]	mass density, 313.15 K [kg/m3]	mass density, 318.15 K [kg/m3]	viscosity, 298.15 K [mPa·s]	viscosity, 303.15 K [mPa·s]	viscosity, 308.15 K [mPa·s]	viscosity, 313.15 K [mPa·s]	viscosity, 318.15 K [mPa·s]
c1 = 0.011	1096.9	1092.54	1087.75	1087.75	1096.42	1.997	1.839	1.682	1.587	1.515
c1 = 0.02	1098.3	1097.71	–	1088.77	1096.52	2.019	1.861	–	1.604	1.531
c1 = 0.024	–	–	1088.77	–	–	–	–	1.701	–	–
c1 = 0.026	–	1106.91	–	–	–	–	1.877	–	–	–
c1 = 0.027	1100.1	–	1088.97	–	1096.58	2.039	–	1.712	–	1.542
c1 = 0.028	–	–	–	1089.77	–	–	–	–	1.615	–
c1 = 0.03	1100.4	1110.93	1089.97	1089.97	1096.6	2.047	1.884	1.722	1.62	1.549
c1 = 0.046	1102.5	–	–	1091.97	–	2.085	–	–	1.659	–
c1 = 0.056	–	1134.93	1091.97	–	1096.9	–	1.923	1.759	–	1.581

[Br-].[Rb+] [rubidium bromide] + O
[3]
Settings	mass density, 298.15 K [kg/m3]	mass density, 303.15 K [kg/m3]	mass density, 308.15 K [kg/m3]	viscosity, 298.15 K [mPa·s]	viscosity, 303.15 K [mPa·s]	viscosity, 318.15 K [mPa·s]
c1 = 0.01	996.69	996.08	989.87	0.893	0.8934	0.5367
c1 = 0.013	996.84	996.08	989.89	0.8935	0.8937	0.537
c1 = 0.02	997.03	996.14	989.99	0.8953	0.8943	0.5375
c1 = 0.024	–	–	990.03	–	–	0.5378
c1 = 0.025	997.28	996.17	–	0.8962	0.8946	–
c1 = 0.034	–	–	–	–	–	0.5383
c1 = 0.035	–	–	990.13	–	–	–
c1 = 0.038	997.79	996.24	–	0.8966	0.895	–

C[S+](C)[O-] [dimethyl sulfoxide] + O
[1]
Settings	mass density, 298.15 K [kg/m3]	mass density, 303.15 K [kg/m3]	mass density, 308.15 K [kg/m3]	mass density, 313.15 K [kg/m3]	mass density, 318.15 K [kg/m3]	viscosity, 298.15 K [mPa·s]	viscosity, 303.15 K [mPa·s]	viscosity, 308.15 K [mPa·s]	viscosity, 313.15 K [mPa·s]	viscosity, 318.15 K [mPa·s]
w1 = 0.2	1024.2	1019.7	1015.2	998.4	979.2	1.34	–	1.054	0.9572	0.8482
w1 = 0.4	1053.47	1052.47	1045.3	1040.12	1038.01	2.221	2.221	1.921	1.618	1.497
w1 = 0.5	1067.81	1062.43	1056.4	1048.28	1047.52	2.807	2.465	2.28	2.14	1.937
w1 = 0.6	1082.31	1081.11	1072.8	1065.21	1057.1	3.421	3.421	3.105	2.846	2.775
w1 = 0.7	1087.32	1084.92	1080.83	1075.23	1067.12	2.357	–	2.081	1.927	1.865
w1 = 1	1095.41	1090.13	1085.38	1080.58	1074.5	1.966	1.809	1.652	1.559	1.488
